Activity calls are given as the source filed them. The rule behind the calls is not given here.
Columns and labels:
CCRF-CEM = assay: Cytotoxicity against human CEM cells assessed as growth inhibition after 72 hrs by MTT assay; assay type: functional, cell-based
SMMC-7721 = assay: Cytotoxicity against human SMMC7721 cells assessed as growth inhibition after 72 hrs by MTT assay; assay type: functional, cell-based; settings: SMMC-7721, 72 h
HepG2 = assay: Cytotoxicity against human HepG2 cells assessed as growth inhibition after 72 hrs by MTT assay; assay type: functional, cell-based; settings: HepG2, 72 h
Bel-7402 [1] = assay: Cytotoxicity against human Bel7402 cells assessed as growth inhibition after 72 hrs by MTT assay; assay type: functional, cell-based; settings: Bel-7402, 72 h
HCT-116 = assay: Cytotoxicity against human HCT116 cells assessed as growth inhibition after 72 hrs by MTT assay; assay type: functional, cell-based; settings: HCT-116, 72 h
Bel-7402 [2] = assay: Ratio of combretastatin A-4 IC50 to compound IC50 for human Bel7402 cells; assay type: functional
MCF7 [3] = assay: Ratio of combretastatin A-4 IC50 to compound IC50 for human MCF7 cells; assay type: functional
MCF7 [4] = assay: Cytotoxicity against human MCF7 cells assessed as growth inhibition after 72 hrs by MTT assay; assay type: functional, cell-based; settings: MCF7, 72 h
SW1990 = assay: Cytotoxicity against human SW1990 cells assessed as growth inhibition after 72 hrs by MTT assay; assay type: functional, cell-based; settings: SW1990, 72 h
MCF7 [5] = assay: Cell cycle arrest in human MCF7 cells assessed as accumulation at G2/M phase at 0.02 uM after 24 hrs by propidium iodide staining-based flow cytometric analysis; assay type: functional
MCF7 [6] = assay: Cell cycle arrest in human MCF7 cells assessed as accumulation at G2/M phase after 24 hrs by propidium iodide staining-based flow cytometric analysis; assay type: functional

COc1cc(-c2c(-c3ccc4cc[nH]c4c3)c(=O)c2=O)cc(OC)c1OC
IC50 (CCRF-CEM): 6.6 nM
IC50 (SMMC-7721): 2540 nM
IC50 (HepG2): 6 nM
IC50 (Bel-7402 [1]): 3620 nM

COc1ccc(-c2c(-c3cc(OC)c(OC)c(OC)c3)c(=O)c2=O)cc1O
IC50 (HCT-116): 5 nM
IC50 (CCRF-CEM): 1.7 nM
IC50 (SMMC-7721): 1520 nM
IC50 (HepG2): 14 nM
Ratio IC50 (Bel-7402 [2]): 5
IC50 (Bel-7402 [1]): 309 nM
Ratio IC50 (MCF7 [3]): 5
IC50 (MCF7 [4]): 6 nM
IC50 (SW1990): 245 nM
Activity (MCF7 [5]): Active

COc1cc(-c2c(-c3ccc4[nH]ccc4c3)c(=O)c2=O)cc(OC)c1OC
IC50 (CCRF-CEM): 15.4 nM
IC50 (SMMC-7721): 646 nM
IC50 (HepG2): 6 nM
IC50 (Bel-7402 [1]): 1500 nM

COc1ccc(-c2c(-c3cc(OC)c(OC)c(OC)c3)c(=O)c2=O)cc1N
IC50 (HCT-116): 5 nM
IC50 (CCRF-CEM): 1.4 nM
Activity (MCF7 [6]): Active
IC50 (SMMC-7721): 190 nM
IC50 (HepG2): 5 nM
Ratio IC50 (Bel-7402 [2]): 122
IC50 (Bel-7402 [1]): 14 nM
IC50 (MCF7 [4]): 164 nM
IC50 (SW1990): 1770 nM

COc1ccc(-c2c(-c3cc(OC)c(OC)c(OC)c3)c(=O)c2=O)cc1OC(C)=O
IC50 (CCRF-CEM): 1.8 nM

COc1ccc(-c2c(-c3ccc(OC)c(OC)c3)c(=O)c2=O)cc1
IC50 (CCRF-CEM): 12700 nM

COc1ccc(-c2c(-c3ccc(OC)c(OC)c3OC)c(=O)c2=O)cc1
IC50 (CCRF-CEM): 2480 nM

COc1ccc(-c2c(-c3c(OC)cc(OC)cc3OC)c(=O)c2=O)cc1
IC50 (CCRF-CEM): 850 nM

COc1ccc(-c2c(-c3cc(OC)c(OC)c(OC)c3)c(=O)c2=O)cc1
IC50 (CCRF-CEM): 16 nM

COc1ccc(-c2c(-c3cc(OC)c(OC)c(OC)c3)c(=O)c2=O)c(OC)c1
IC50 (CCRF-CEM): 1770 nM

COc1ccc(-c2c(-c3cc(OC)c(OC)c(OC)c3)c(=O)c2=O)cc1[N+](=O)[O-]
IC50 (CCRF-CEM): 12200 nM

COc1ccc(-c2c(-c3cc(OC)c(OC)c(OC)c3)c(=O)c2=O)cc1Cl
IC50 (CCRF-CEM): 136 nM

COc1ccc(/C=C\c2cc(OC)c(OC)c(OC)c2)cc1O [COMBRETASTATIN A4]
IC50 (CCRF-CEM): 1.6 nM
IC50 (MCF7 [4]): 29 nM

COc1ccc(-c2c(-c3cc(OC)c(OC)c(OC)c3)c(=O)c2=O)cc1OC
IC50 (CCRF-CEM): 210 nM

COc1cc(-c2c(-c3ccccc3)c(=O)c2=O)cc(OC)c1OC
IC50 (CCRF-CEM): 16100 nM

COc1ccc(-c2c(-c3cc(OC)c(OC)c(OC)c3)c(=O)c2=O)cc1F
IC50 (HCT-116): 81 nM
IC50 (CCRF-CEM): 11.5 nM
IC50 (SMMC-7721): 176 nM
IC50 (HepG2): 105 nM
IC50 (Bel-7402 [1]): 13 nM
IC50 (MCF7 [4]): 5 nM
IC50 (SW1990): 27 nM

COc1ccc(-c2c(-c3ccc(OC)cc3OC)c(=O)c2=O)cc1
IC50 (CCRF-CEM): 1510 nM

COc1cc(-c2c(-c3cc(OC)c(OC)c(OC)c3)c(=O)c2=O)cc(OC)c1OC
IC50 (CCRF-CEM): > 20000 nM

COc1ccc(-c2c(-c3ccc(OC)cc3)c(=O)c2=O)cc1
IC50 (CCRF-CEM): > 20000 nM

— ChEMBL document CHEMBL2401623, “Synthesis and antitumor activity of novel 3,4-diaryl squaric acid analogs” (Eur J Med Chem, 2013)
